The results in this text go back to BindingDB's records for doi:10.7270/Q2D798VP (Broad Institute, 2009).

A value given as a limit tells only on which side of the number the result lay.

The target in the experiment is T1, Zinc finger protein mex-5 (Caenorhabditis elegans, UniProt Q9XUB2).
T1 sequence (Q9XUB2 whole entry): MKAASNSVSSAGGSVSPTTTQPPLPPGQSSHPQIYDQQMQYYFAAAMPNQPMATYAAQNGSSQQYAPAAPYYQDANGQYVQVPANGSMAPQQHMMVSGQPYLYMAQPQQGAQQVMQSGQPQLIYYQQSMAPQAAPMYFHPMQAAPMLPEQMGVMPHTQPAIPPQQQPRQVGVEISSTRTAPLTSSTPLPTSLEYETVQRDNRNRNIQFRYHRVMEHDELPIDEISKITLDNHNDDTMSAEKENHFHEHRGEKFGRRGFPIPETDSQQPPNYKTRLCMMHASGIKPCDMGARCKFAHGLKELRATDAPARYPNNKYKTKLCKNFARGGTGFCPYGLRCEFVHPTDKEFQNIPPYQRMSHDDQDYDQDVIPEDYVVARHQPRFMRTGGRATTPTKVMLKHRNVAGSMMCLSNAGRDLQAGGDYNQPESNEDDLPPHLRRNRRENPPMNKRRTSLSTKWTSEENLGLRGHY
The experiment is described as follows: potency of MEX-5 RNA-binding blockers – biochemical, C. elegans, fluorescence polarization, dose response (AID 1960).

In general, EC50 refers to the concentration that produces a half-maximal response.

On to `O=C1C(=O)N(c2ncccn2)C(c2cccs2)C1C(=O)c1ccco1` (configuration not stated) [3-(furan-2-carbonyl)-4-hydroxy-1-pyrimidin-2-yl-2-thiophen-2-yl-2H-pyrrol-5-one], for which the EC50 worked out at 31.5 µM. This lies in the double-digit micromolar range.

`CC1=NC(c2ccccc2)C(C#N)(C#N)C(C#N)(C#N)C1` (configuration not stated) [SMR000037705] registered a half-maximal effective concentration (EC50) of 2.46 µM. Against the preceding compound, the EC50 is about 13-fold lower.

The compound `CC1=C(C#N)C(=O)N(C)C(=O)C1=CNNc1ccc(F)cc1` [MLS000702698] registered an EC50 above 300 µM.

For the compound `N#CC1C(=N)OC2=C(C(=O)CCC2)C1c1ccccc1` (configuration not stated) [2-amino-5-keto-4-phenyl-4,6,7,8-tetrahydrochromene-3-carbonitrile], the EC50 is above 300 µM.

With `COc1ccc(OC)c(N2C(=O)C(=Cc3ccco3)C(=O)NC2=S)c1` [MLS001197216], the 50% effective concentration (EC50) came to 10.8 µM.

The compound `CCCCOc1cccc(C2C(C(=O)c3ccc(C)o3)C(=O)C(=O)N2c2nnc(C)s2)c1` (configuration not stated) [2-(3-butoxyphenyl)-3-(5-methylfuran-2-yl)carbonyl-1-(5-methyl-1,3,4-thiadiazol-2-yl)-4-oxidanyl-2H-pyrrol-5-one] came in with an EC50 of 77.4 µM. Against the preceding compound, the EC50 is about 7.2-fold higher.

`Cc1nnc(SC(C(=O)O)=C2C(=O)Nc3ccccc32)[nH]1` [(5-Methyl-4H-[1,2,4]triazol-3-ylsulfanyl)-[2-oxo-1,2-dihydro-indol-(3E)-ylidene]-acetic acid] yielded a half-maximal effective concentration (EC50) of 25.2 µM.

`CC(N=Nc1ccc([N+](=O)[O-])cc1[N+](=O)[O-])c1cc2c(ccc3ccccc32)oc1=O` (configuration not stated) [2-[1-[(2,4-dinitrophenyl)hydrazinylidene]ethyl]-3-benzo[f][1]benzopyranone] had an EC50 above 300 µM.

`O=C1NC(=O)N(Cc2ccccc2)C(=O)C1=CNc1ccc(CN2CCOCC2)cc1` [(5E)-1-benzyl-5-[[4-(morpholin-4-ylmethyl)anilino]methylidene]-1,3-diazinane-2,4,6-trione] had an EC50 above 300 µM.

Compound `C=CC1=C(C(=O)O)N2C(=O)[C@@H](NC(=O)C(N=O)c3csc(N)n3)[C@H]2SC1` (stereo partly drawn) [(6R,7R)-7-[[2-(2-azanyl-1,3-thiazol-4-yl)-2-hydroxyimino-ethanoyl]amino]-3-ethenyl-8-oxidanylidene-5-thia-1-azabicyclo[4.2.0]oct-2-ene-2-carboxylic acid] came in with an EC50 of 33.3 µM.

`Cc1nnc(SC(=Cc2ccc(OCc3ccc(C(=O)O)cc3)cc2)C(=O)O)[nH]1` [4-[[4-[(E)-2-[(5-methyl-1H-1,2,4-triazol-3-yl)sulfanyl]-3-oxidanyl-3-oxidanylidene-prop-1-enyl]phenoxy]methyl]benzoic acid] registered an EC50 of 3.38 µM. This EC50 is about 9.9-fold lower than that of the compound before.

`N#CC1C(=N)OC2=C(C(=O)CC(c3ccco3)C2)C1c1ccc(OCc2c(F)cccc2Cl)cc1` (configuration not stated) [2-azanyl-4-[4-[(2-chloranyl-6-fluoranyl-phenyl)methoxy]phenyl]-7-(furan-2-yl)-5-oxidanylidene-4,6,7,8-tetrahydrochromene-3-carbonitrile]: the 50% effective concentration (EC50) is above 300 µM.

For `O=C(Cc1nc2cc([N+](=O)[O-])ccc2[nH]c1=O)c1ccccc1` [6-Nitro-3-(2-oxo-2-phenyl-ethylidene)-3,4-dihydro-1H-quinoxalin-2-one], the EC50 was above 300 µM.

`Cc1c(C(=O)O)cccc1-n1c(C)cc(CN=Nc2ccc([N+](=O)[O-])cn2)c1C` yielded an EC50 of 50.2 µM.

The compound `CCOC(=O)C1=C(C)OC(=N)C(C#N)C1c1ccc(O)c(OC)c1` (configuration not stated) [6-amino-5-cyano-4-(4-hydroxy-3-methoxyphenyl)-2-methyl-4H-pyran-3-carboxylic acid ethyl ester] returned an EC50 above 300 µM.

For the compound `CN=c1scc(C)n1N=Cc1ccc(O)c(O)c1O` [(4E)-2,3-dihydroxy-4-[[(4-methyl-2-methylimino-1,3-thiazol-3-yl)amino]methylidene]cyclohexa-2,5-dien-1-one], the EC50 is 67.1 µM.

Turning to `C=CCOc1ccc(C2C(C(=O)c3ccco3)C(=O)C(=O)N2c2nnc(C)s2)cc1` (configuration not stated) [3-(furan-2-carbonyl)-4-hydroxy-1-(5-methyl-1,3,4-thiadiazol-2-yl)-2-(4-prop-2-enoxyphenyl)-2H-pyrrol-5-one], the EC50 is above 300 µM.

Regarding `CC(C)c1ccc(C2C(C#N)=C3Sc4ccccc4N3C(=N)C2C#N)cc1` (configuration not stated) [1-amino-3-(4-propan-2-ylphenyl)-3H-pyrido[2,1-b][1,3]benzothiazole-2,4-dicarbonitrile], the EC50 is 61.3 µM.

The compound `COc1cc(OC)c(C2C3=C(CC(C)CC3=O)OC(=N)C2C#N)cc1OC` (configuration not stated) [2-amino-4-asaryl-5-keto-7-methyl-4,6,7,8-tetrahydrochromene-3-carbonitrile] came in with an EC50 above 300 µM.

As to `COc1cc(OC)c(C2C3=C(CC(C)(C)CC3=O)OC(=N)C2C#N)cc1OC` (configuration not stated) [SMR000054706], the EC50 is above 300 µM.

The compound `CN(C)c1ccc(N=Cc2nc(-c3ccccc3)oc2O)cc1` [SMR000009577] registered an EC50 of 5.22 µM.

`COc1ccc(C=C2CCCC(C(=O)C(F)(F)F)C2=O)cc1` (configuration not stated) [SMR000142699]: the EC50 amounted to 41.4 µM. Compared with the last compound, the EC50 is about 7.9-fold higher.

For `O=C(/C=C/c1ccco1)NCC(=O)NNC1=c2ccccc2=NC1=O` [MLS001075666], the 50% effective concentration (EC50) was found to be 5.49 µM.

In the case of `Cc1cc(=O)n(-c2ccc(C(=O)O)c(N)c2)[nH]1` [MLS000690508], the response was half-maximal at 38.3 µM (EC50).

With `O=C1N=C(N2C=CC(c3ccncc3)C=C2)C(=CN=NC(=O)c2ccccc2O)S1` [SMR000646350], a half-maximal effect (EC50) was put at 10.7 µM. This EC50 is about 3.6-fold lower than that of the compound before.

With `Cc1ccc(Cl)c2c1NC(=O)/C2=C1/NC(=S)NC1=O`, the EC50 came to 0.294 µM.

`CC1(C)CC(=O)C2=C(C1)OC(=N)C(C#N)[C@@]21C(=O)N(CC(N)=O)c2ccccc21` (stereo partly drawn) [2-[(4R)-2-amino-3-cyano-2',5-diketo-7,7-dimethyl-spiro[6,8-dihydrochromene-4,3'-indoline]-1'-yl]acetamide] had an EC50 above 300 µM.

Take `Cn1cc(C=C2C(=O)NC(=O)N(c3ccccc3)C2=O)c2ccccc21` [SMR000559087]: the EC50 stood at 4.34 µM.

For the compound `CCOC(=O)N1CCC2=C(C#N)C(=N)C(C#N)(C#N)[C@H](c3ccsc3)[C@H]2C1` [(8R,8aR)-6-amino-5,7,7-tricyano-8-(3-thienyl)-1,3,8,8a-tetrahydroisoquinoline-2-carboxylic acid ethyl ester], the EC50 was determined as 58.7 µM.

As to `CCOC(=O)C1C(=O)C(=Cc2cn(CC(=O)N3CCCC3)c3ccccc23)S/C1=N\c1ccccc1` (configuration not stated) [(5Z)-2-anilino-4-keto-5-[[1-(2-keto-2-pyrrolidino-ethyl)indol-3-yl]methylene]thiophene-3-carboxylic acid ethyl ester], the half-maximal effective concentration (EC50) was determined as 26.2 µM.

Turning to `COc1ccc(N2C(=O)NC(=O)C(=Cc3cn(C)c4ccccc34)C2=O)cc1` [MLS001196573], the midpoint of the response, the EC50, lay at 1.15 µM.

Take `COC1=CC(CN=Nc2[nH]c(=O)nnc2C)C=C([N+](=O)[O-])C1=O` (configuration not stated) [5-[[(E)-(3-methoxy-5-nitro-4-oxo-1-cyclohexa-2,5-dienylidene)methyl]hydrazo]-6-methyl-2H-1,2,4-triazin-3-one]: it took 10.8 µM to reach a half-maximal effect (EC50).

The compound `Cc1cc(C(=O)NN=CC2C=C(Cl)C=C([N+](=O)[O-])C2=O)[nH]n1` (configuration not stated) [SMR000414694] registered a concentration for a half-maximal effect (EC50) above 300 µM.

Take `CS(=O)(=O)Nc1nc2n(n1)C(c1ccccc1)CC(c1ccc(Br)cc1)=N2` (configuration not stated): the EC50 worked out at 6.39 µM.

In turn, `COc1ccc(C2C(C(=O)c3cccs3)C(=O)C(=O)N2c2nncs2)cc1` (configuration not stated) had an EC50 of 0.1 µM.

The compound `Cc1c(C(=O)NN=Cc2ccco2)[nH][nH]c1=O` gave a 50% effective concentration (EC50) above 300 µM.

`O=NCc1cccn1-c1cccc(C(=O)O)c1` [3-[2-(hydroximinomethyl)pyrrol-1-yl]benzoic acid] gave an EC50 above 300 µM.

In the case of `N#CC1C(=N)OC2=C(C(=O)CCC2)C1c1cc2c(cc1Br)OCO2` (configuration not stated) [2-azanyl-4-(6-bromanyl-1,3-benzodioxol-5-yl)-5-oxidanylidene-4,6,7,8-tetrahydrochromene-3-carbonitrile], the EC50 is above 300 µM.

`O=C(O)COc1ccc(C=Cc2nnc(-c3ccccc3O)[nH]2)cc1` [2-[4-[(E)-2-[(5Z)-5-(6-oxo-1-cyclohexa-2,4-dienylidene)-1,2-dihydro-1,2,4-triazol-3-yl]ethenyl]phenoxy]acetic acid] came in with an EC50 of 0.945 µM.

As to `CC1(C)CC(=O)C2=C(C1)OC(=N)C(C#N)C2c1ccccc1` (configuration not stated) [2-amino-5-keto-7,7-dimethyl-4-phenyl-6,8-dihydro-4H-chromene-3-carbonitrile], the EC50 was above 300 µM.

The compound `N#CC1=C2CCCCC2C(c2cccnc2)C(C#N)(C#N)C1=N` (configuration not stated) [2-amino-4-(3-pyridinyl)-4a,5,6,7-tetrahydro-4H-naphthalene-1,3,3-tricarbonitrile] came in with an EC50 of 17.5 µM. That is a double-digit micromolar value.

In turn, `O=NC1CC2(CC(N=O)C1N=O)OCCO2` (configuration not stated) [9-(hydroxyamino)-8-nitroso-1,4-dioxaspiro[4.5]dec-8-en-7-one oxime] came in with an EC50 of 13 µM.

`O=c1c2ccccc2nc(N=NCc2ccc(O)cc2)n1O` [3-Hydroxy-2-{N'-[1-(4-hydroxy-phenyl)-meth-(E)-ylidene]-hydrazino}-3H-quinazolin-4-one] displayed an EC50 above 300 µM.

For the compound `COc1cccc(CN=Nc2ncnc(N)c2[N+](=O)[O-])c1OC` [(6-amino-5-nitro-pyrimidin-4-yl)-[(2,3-dimethoxybenzylidene)amino]amine], the EC50 was above 300 µM.

As for `O=C(O)c1ccc(NN=CC2=C(N3CCOCC3)C(=Cc3ccccc3)CC2)cc1` [4-[2-[[(3Z)-2-(4-morpholinyl)-3-(phenylmethylene)-1-cyclopentenyl]methylidene]hydrazinyl]benzoic acid], a half-maximal response (EC50) required 109 µM.

In the case of `O=C1c2cccc([N+](=O)[O-])c2C(=O)N1n1c(O)csc1=S` [2-(4-keto-2-thioxo-thiazolidin-3-yl)-4-nitro-isoindoline-1,3-quinone], the EC50 was determined as 24.8 µM.

Turning to `C=CCc1cccc(C=Nn2cnnc2)c1O` [(6E)-2-allyl-6-[(1,2,4-triazol-4-ylamino)methylene]cyclohexa-2,4-dien-1-one], it took 238 µM to reach a half-maximal effect (EC50).
